The text below walks through data of ChEMBL document CHEMBL5550148, “Systematic alanine and stapling mutational analysis of antimicrobial peptide Chem-KVL” (Bioorg Med Chem Lett, 2024).

One data set deals with Acinetobacter baumannii. The experiment in a line: Antibacterial activity against Acinetobacter baumannii ATCC 17978 assessed as inhibition of bacterial growth. It is filed as functional.
Data set [1] concerns Staphylococcus aureus. Put plainly: Antibacterial activity against Staphylococcus aureus ATCC 25923 assessed as inhibition of bacterial growth. It is filed as functional.
In a further data set the test system is Klebsiella pneumoniae. The experiment in a line: Antibacterial activity against Klebsiella pneumoniae ATCC 13883 assessed as inhibition of bacterial growth. It is filed as functional.
Data set [2] relates to Pseudomonas aeruginosa. The experiment in a line: Antibacterial activity against Pseudomonas aeruginosa ATCC 27853 assessed as inhibition of bacterial growth. Format: functional.
Data set [3] concerns Escherichia coli. The experiment in a line: Antibacterial activity against Escherichia coli ATCC 25922 assessed as inhibition of bacterial growth. It is filed as functional.
For another data set, the system named is Salmonella typhimurium. Put plainly: Antibacterial activity against Salmonella typhimurium clinical isolate assessed as inhibition of bacterial growth. It is filed as functional, Salmonella enterica subsp. enterica serovar Typhimurium. To be noted: Salmonella enterica.
Data set [4] deals with T1, chymotrypsin (Homo sapiens, UniProt P17538+P40313+Q6GPI1+Q99895). Put plainly: Proteolytic stability of compound assessed as chymotrypsin (unknown origin) mediated drug degradation measured within 4 hrs by HPLC analysis. It is filed as ADME, protein assay. To be noted: read-out: Drug degradation.
A short description of data set [5]: Cytotoxicity against mouse RAW264.7 cells. It is filed as toxicity, cell-based.
Data set [6] is described as follows: Retention time of compound by HPLC analysis. Format: physicochemical.
For data set [7], the target named is T1, chymotrypsin. The experiment in a line: Proteolytic stability of compound assessed as chymotrypsin (unknown origin) mediated drug degradation by measuring compound remaining after 4 hrs by HPLC analysis. To be noted: read-out: Stability. It is filed as ADME, protein assay.
Data set [8] has as its system Staphylococcus aureus. The experiment in a line: Potency index, ratio of Chem-KVL MIC to test compound MIC for antibacterial activity against Staphylococcus aureus ATCC 25923. Format: functional.
Data set [9] deals with Pseudomonas aeruginosa. Put plainly: Potency index, ratio of Chem-KVL MIC to test compound MIC for antibacterial activity against Pseudomonas aeruginosa ATCC 27853. It is filed as functional.
The subject of data set [10] is Escherichia coli. Put plainly: Potency index, ratio of Chem-KVL MIC to test compound MIC for antibacterial activity against Escherichia coli ATCC 25922. Format: functional.

Converted amounts (≈) assume the structure as drawn. Bridge positions count the residues as written; N and C are the ends. Square brackets hold non-standard residues; d marks the D form. Peptide text beside a SMILES is read from it. S5 = C=CCCC[C@](C)(N)C(=O)O

The MIC is the lowest concentration found to suppress growth. For orientation: IC50 means the concentration needed to halve the response being measured. A lower IC50 goes with higher potency. On to Ac-KVLGRLVKVLGRLV-NH2, for which the minimum inhibitory concentration (MIC) stood at 16 µg/mL with Acinetobacter baumannii; 16 µg/mL in the data set on Staphylococcus aureus [1]; 16 µg/mL in the data set on Klebsiella pneumoniae; 32 µg/mL in the data set on Pseudomonas aeruginosa [2]; 32 µg/mL in the data set on Escherichia coli [3]; 32 µg/mL in the data set on Salmonella typhimurium. Further, the metabolised at 4 h on chymotrypsin [4] was 100%. For the same compound, the IC50 in [5] was 3.7 µg/mL. The compound further returned a Time in data set [6] of 25.1 min.
In the case of `CC(=O)N[C@@H](CCCCN)C(=O)N[C@H](C(=O)N[C@@H](CC(C)C)C(=O)NCC(=O)N[C@@H](CCCNC(=N)N)C(=O)N[C@@]1(C)CCC/C=C\CCC[C@@](C)(C(=O)NCC(=O)N[C@@H](CCCNC(=N)N)C(=O)N[C@@H](CC(C)C)C(=O)N[C@H](C(N)=O)C(C)C)NC(=O)[C@H](C(C)C)NC(=O)[C@H](CCCCN)NC(=O)[C@H](C(C)C)NC1=O)C(C)C` (Ac-KVLGR[S5]VKV[S5]GRLV-NH2; staple (Z) 6-10), the MIC in the data set on Acinetobacter baumannii came to 16 µg/mL (≈ 9.91 µM); in the data set on Staphylococcus aureus [1], 2 µg/mL (≈ 1.24 µM); in the data set on Klebsiella pneumoniae it was 64 µg/mL (≈ 39.6 µM); with Pseudomonas aeruginosa [2], 4 µg/mL (≈ 2.48 µM); in the data set on Escherichia coli [3], 32 µg/mL (≈ 19.8 µM); with Salmonella typhimurium, 64 µg/mL (≈ 39.6 µM). Besides, the remaining at 4 h at chymotrypsin [7] was > 70%. The same compound registered an IC50 in data set [5] of 2.95 µg/mL (≈ 1.83 µM). Also, the Time in [6] was 26.5 min.
For the compound `CC(=O)N[C@@H](CCCCN)C(=O)N[C@@]1(C)CCC/C=C\CCC[C@@](C)(C(=O)N[C@H](C(=O)N[C@@H](CCCCN)C(=O)N[C@H](C(=O)N[C@@H](CC(C)C)C(=O)NCC(=O)N[C@@H](CCCNC(=N)N)C(=O)N[C@@H](CC(C)C)C(=O)N[C@H](C(N)=O)C(C)C)C(C)C)C(C)C)NC(=O)[C@H](CCCNC(=N)N)NC(=O)CNC(=O)[C@H](CC(C)C)NC1=O` (Ac-K[S5]LGR[S5]VKVLGRLV-NH2; staple (Z) 2-6), the minimum inhibitory concentration (MIC) stood at 16 µg/mL (≈ 9.82 µM) with Acinetobacter baumannii; 8 µg/mL (≈ 4.91 µM) with Staphylococcus aureus [1]; 32 µg/mL (≈ 19.6 µM) in the data set on Klebsiella pneumoniae; 4 µg/mL (≈ 2.46 µM) in the data set on Pseudomonas aeruginosa [2]; 16 µg/mL (≈ 9.82 µM) in the data set with Escherichia coli [3]; 32 µg/mL (≈ 19.6 µM) in the data set with Salmonella typhimurium. Also, the metabolised at 4 h at chymotrypsin [4] is 100%. Besides, the 50% inhibitory concentration (IC50) in [5] was determined as 4.11 µg/mL (≈ 2.52 µM). The same compound had a Time in data set [6] of 27.3 min.
As to Ac-KVLGRLVKVLARLV-NH2, the MIC was determined as 16 µg/mL in the data set on Acinetobacter baumannii; 8 µg/mL in the data set with Staphylococcus aureus [1]; 16 µg/mL in the data set with Klebsiella pneumoniae; 8 µg/mL in the data set with Pseudomonas aeruginosa [2]; 16 µg/mL in the data set on Escherichia coli [3]; 32 µg/mL with Salmonella typhimurium. Besides, the Ratio with Staphylococcus aureus [8], in the data set on Pseudomonas aeruginosa [9] and in the data set on Escherichia coli [10] was 2 in each case. In data set [6], the Time was 27.4 min.
For `CC(=O)N[C@@H](CCCCN)C(=O)N[C@H](C(=O)N[C@@H](CC(C)C)C(=O)NCC(=O)N[C@@H](CCCNC(=N)N)C(=O)N[C@@H](CC(C)C)C(=O)N[C@H](C(=O)N[C@@H](CCCCN)C(=O)N[C@H](C(=O)N[C@@]1(C)CCC/C=C\CCC[C@@](C)(C(N)=O)NC(=O)[C@H](CC(C)C)NC(=O)[C@H](CCCNC(=N)N)NC(=O)CNC1=O)C(C)C)C(C)C)C(C)C` (Ac-KVLGRLVKV[S5]GRL[S5]-NH2; staple (Z) 10-14), the MIC amounted to 32 µg/mL (≈ 19.6 µM) in the data set on Acinetobacter baumannii; 4 µg/mL (≈ 2.46 µM) with Staphylococcus aureus [1]; 64 µg/mL (≈ 39.3 µM) with Klebsiella pneumoniae; 8 µg/mL (≈ 4.91 µM) in the data set on Pseudomonas aeruginosa [2]; 32 µg/mL (≈ 19.6 µM) in the data set with Escherichia coli [3]; 64 µg/mL (≈ 39.3 µM) in the data set with Salmonella typhimurium. This compound also yielded a Time in [6] of 28.3 min.
